Assay results as given in patent US20220267753A1, “RATIONAL THERAPEUTIC TARGETING OF ONCOGENIC IMMUNE SIGNALING STATES IN MYELOID MALIGNANCIES VIA THE UBIQUITIN CONJUGATING ENZYME UBE2N” (CHILDREN'S HOSPITAL MEDICAL CENTER, priority 2019, published 2022).
Where two headings read alike, the source gives them in different places.

Key:
AML cell lines = test: Cell proliferation MTS assay, panel of AML cell lines; type: cell-based; details: Homo sapiens
Procedure: AML cell lines (5×10^3 cells/well) were seeded in 96-well plates and grown for 24 to 96 h in serum (10%)-containing medium in the presence or absence of inhibitors at the indicated concentrations. Proliferation was analyzed by means of an MTS assay using the CellTiter 96 Aqueous One Solution Cell Proliferation Assay (Promega, Madison, Wis., USA), according to the manufacturer's instructions. Data are mean with standard deviation from three independent experiments in technical triplicates. For the screening of 160 compounds from the UC library, the cell metabolic activity was assessed at 24 hours of treatment of MOLM-13 cells. Top 15 candidates were re-screened at 2 μM, and the cell metabolic activity was determined at 24 hours of treatment. In certain experiments, cell viability was determined by staining the cells with trypan blue at a 1/2 dilution and counting total number of viable cells upon treatment with UC-764864 or DMSO control. The cells were counted daily for 4 days using an automated cell counter (Countess II FL from Life Technologies). […] UC-764864 was added at the indicated concentrations and cells were incubated with drug for 3 days, at which point cell viability was measured by MTS according to manufacturer's instructions.

MOLM-13 cells = test: Trypan blue viability and Caspase 3 cleavage immunoblot; type: cell-based, human
Procedure: AML cell lines (5×10^3 cells/well) were seeded in 96-well plates and grown for 24 to 96 h in serum (10%)-containing medium in the presence or absence of inhibitors at the indicated concentrations. Proliferation was analyzed by means of an MTS assay using the CellTiter 96 Aqueous One Solution Cell Proliferation Assay (Promega, Madison, Wis., USA), according to the manufacturer's instructions. Data are mean with standard deviation from three independent experiments in technical triplicates. For the screening of 160 compounds from the UC library, the cell metabolic activity was assessed at 24 hours of treatment of MOLM-13 cells. Top 15 candidates were re-screened at 2 μM, and the cell metabolic activity was determined at 24 hours of treatment. In certain experiments, cell viability was determined by staining the cells with trypan blue at a 1/2 dilution and counting total number of viable cells upon treatment with UC-764864 or DMSO control. The cells were counted daily for 4 days using an automated cell counter (Countess II FL from Life Technologies). […] UC-764864 was added at the indicated concentrations and cells were incubated with drug for 3 days, at which point cell viability was measured by MTS according to manufacturer's instructions. […]

UBE2E1 = target: T1, UBE2E1 (Homo sapiens, UniProt P51965); test: Thioester bond formation assay; details: same biochemical assay
T1 construct: purchased Enzo Life Science BML-UW8710
Procedure: (§1) An in vitro Ubiquitin-E2 thioester (TE) bond formation assay was performed as described (Enzo Life Science, #BML-UW9920-0001, Farmingdale, N.Y.). The reaction was prepared as follows: 10×E2 (UBE2N/Mms2, No. BML-UW9565; UbcH5a, No. BML-UW9050; or UbcH6, Prod. No. BML-UW8710) were incubated with UC-764864 or UC-764865 at 1 or 2 μM for 30 minutes at room temperature. After the incubation period, the following reagents were added to the reaction: distilled water, 10× ubiquitination buffer, inorganic pyrophosphatase solution (100 U/mL in 20 mM Tris-HCl, pH 7.5, Sigma, 83205, St. Louis, Mo.), 50 mM DTT, 0.1 M Mg-ATP, 20×E1 (recombinant human ubiquitin-activating enzyme) and 20× biotinylated ubiquitin to a final volume of 10 p.l. The mixture was incubated for 4 hours at 37° C. The reaction was stopped by adding 10 p.l 2× non-reducing gel loading buffer. 15 p.l of the samples were run on SDS-PAGE gels and transferred to PVDF membrane. […] After washing the membrane for 6×10 mins with TBS-T on a rocking platform, total ubiquitin was detected with ECL detection reagent (Pierce™ ECL Western Blotting Substrate, #32106, Appleton, Wis.) according to the manufacturer's instructions. Detect emitted signal with Biorad ChemiDoc™ MP and analyzed with Image lab software 6.0.1 (Biorad, Hercules, Calif.) or Image J [67]. […]

UBE2D1 = target: T2, UBE2D1 (Homo sapiens, UniProt P51668); test: Thioester bond formation assay; details: same biochemical assay
T2 construct: purchased Enzo Life Science BML-UW9050
Procedure: as §1

[1] = tested on: patient-derived AML cells; test: Patient-derived xenografts (PDX) in NSGS mice; type: in vivo

T2 sequence (P51668 whole entry): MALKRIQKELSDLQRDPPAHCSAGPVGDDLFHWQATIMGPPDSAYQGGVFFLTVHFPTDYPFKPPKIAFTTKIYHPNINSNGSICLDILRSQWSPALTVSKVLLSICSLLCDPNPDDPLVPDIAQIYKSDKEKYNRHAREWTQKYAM
T1 sequence (P51965 whole entry): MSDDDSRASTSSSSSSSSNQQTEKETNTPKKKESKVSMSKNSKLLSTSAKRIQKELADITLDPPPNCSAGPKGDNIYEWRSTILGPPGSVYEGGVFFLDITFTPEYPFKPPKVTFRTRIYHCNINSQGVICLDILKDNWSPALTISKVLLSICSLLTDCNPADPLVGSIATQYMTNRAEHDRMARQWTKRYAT

`CCc1ccc(C(=O)C=CSc2nc3ccc(C)cc3[nH]2)cc1` [UC-764864, 1-(4-ethylphenyl)-3-[(6-methyl-1H-benzimidazol-2-yl)sulfanyl]prop-2-en-1-one] was tested, and the IC50 (AML cell lines; HL-60, NOMO-1, Kasumi-1, MV4-11, MDSL, read-out: IC50, cell lines with intermediate sensitivity) was 4.3 to 6.7 µM, the IC50 (AML cell lines; MOLM-14, MOLM-13, THP-1, SKM-1, read-out: IC50, highly sensitive cell lines) was 0.02 to 2.5 µM and the “apoptosis (trypan blue uptake, cleavage of Caspase 3)” value (MOLM-13 cells) was “increase in apoptosis”. For the same molecule, the “interference with activity of UBE2E1” value (UBE2E1) was “did not interfere” and the “interference with activity of UBE2D1” value (UBE2D1) was “did not interfere”.
In the case of `COc1ccc(C(=O)C=CSc2nc3ccc(C)cc3[nH]2)cc1` [UC-764865, 1-(4-methoxyphenyl)-3-[(6-methyl-1H-benzimidazol-2-yl)sulfanyl]prop-2-en-1-one], the “leukemic burden of mice xenografted with UBE2N-resistant sample AML-JM60” value ([1]; 25 mg/kg IP) is reported as “did not decrease”, the “total and ubiquitinated UBE2N in BM cells of mice xenografted with AML-JM40” value ([1]; 25 mg/kg, vs vehicle, immunoblot) is reported as “reduced” and the “reduction in leukemic burden of UBE2N-sensitive AML cells in the BM” value ([1]; JM7, JM40, JM26, 25 mg/kg IP, P=0.008) is reported as 30-60%.
